Laboratory results: patent US20090012088A1 (priority 2005, published 2009)
“Also recorded” adds a separate entry of the source. Read-outs that look alike come from different tables or passages of the source.

Tests used:
PARG [1] = target: T1, PARG (Homo sapiens, UniProt Q86W56); details: 32P-PAR assay; KM of PAR 1.7 μM; cited from earlier work
PARG [2] = assay: Table 2: small molecules tested for PARG inhibition activity (relative to PIP-1); assay type: biochemical
U-937 cells = assay: Protection against H2O2 treatment of U-937 cells (cell survival); assay type: cell-based; details: FIG. 13
Description: We have made multiple derivatives of PIP-1; these compounds are shown below in Table 2 and in FIG. 11 and labeled Structures 1-39. The neuroprotective effects of structures 1-26 were tested in the cellular assay and compared to the neuroprotective effect of PIP-1 (FIG. 13).
PIP-1 and structures 1-26 were screened for protection against H2O2 treatment of U-937 cells FIG. 13.

[3] = tested on: NAD^+ depletion in HL-60 cell lysate; assay: Whole cell assay screen: NAD+ depletion in H2O2-activated HL-60 cell lysate; assay type: cell-based
Description: To identify a non-toxic, non-DNA intercalating, cell permeable small molecule inhibitor of PARG, a high-throughput screen is devised. Given the severe challenges in isolating enough of the PAR substrate for an in vitro screen directly for PARG inhibition, we develop a primary screen that utilizes cell lysates and, in particular, mammalian cell lysates. In this assay, HL-60 cells are treated with H2O2 to damage their DNA (which activates PARP-1) and then lyse the cells. In individual wells of a 384-well plate, this cell lysate is incubated with 22,000 different small molecules from an in-house compound collection; these compounds are either purchased (from ChemBridge Corp.) or collected from various sources at the University of Illinois. (28) NAD^+ levels are measured using a fluorescent method based on the chemical conversion of NAD^+ to a fluorescent product (29, 30) (FIG. 14A). The amount of NAD^+ consumed in each well is monitored, and any compounds that prevent NAD^+ consumption are classified “hits” in this primary screen.
Library screen: 12.5 μL of Lysing PARP buffer (50 mM Tris, 10 mM MgCl2, pH 8.0, 1% Triton X-100) containing 100 μM NAD^+ is added to each well of a 384-well plate. Library compounds at 10 mM in DMSO are transferred using a 384-well pin transfer device that delivers 0.1 μL. HL-60 cells are spun down at 200 g for 5 min. and resuspended in Lysing PARP buffer to a concentration of 8×10^6 cells/mL. 10 μL of a 30% H2O2 solution is added per mL of cells. 12.5 μL of the activated cell lysate is added to the plates. The plates are incubated for 60 min. at 37° C. The concentration of NAD^+ is then determined using a fluorescent assay^1. 10 μL of a 2 M KOH solution and 10 μL of a 20% acetophenone solution (in ethanol) is added to each well. The plate is then incubated at 4° C. for 10 min. 45 μL of a 88% formic acid solution was added to each well. The plate was then incubated for 5 min. in a 110° C. oven. Once the plate cools, the fluorescent intensity of each well is determined on a Criterion Analyst AD (Molecular Devices) with an excitation of 360 nm and an emission of 445 nm.

[4] = tested on: neuronally differentiated PC-12 cells; assay: Protection from rotenone induced toxicity in neuronally differentiated PC-12 cells; assay type: cell-based
Description: Rotenone is a complex I poison and is widely used in cell culture and animal models of PD. (20, 31, 32) To determine if PIP-1 protects cells from rotenone insult, PC-12 cells are neuronally differentiated (with neuronal growth factor β for 10 days) and then treated with 10 μM rotenone and a range of PIP-1 concentrations. After 72 hours, cell death is assessed using propidium iodide staining as measured by flow cytometry. […] To determine the features on PIP-1 that are important for PARG inhibition and cell protection, three derivatives are constructed that lacked key functionality (see FIG. 19 compounds labeled 3, 4 and 5).
Cell culture conditions: HL-60 and SK-N-SH cells are grown in RPMI 1640 media supplemented with 10% FBS and PC-12 cells are grown in RPMI 1640 media supplemented with 10% HS and 5% FBS. All cell lines are incubated at 37° C. in a 5% CO2, 95% air atmosphere. HL-60 cells are split every two to three days as needed and SK-N-SH cells are split when they reach approximately 90% confluency at a 1:6 ratio. SK-N-SH cells are differentiated by adding media containing 10 μM retinoic acid (in DMSO). Media is replaced every other day and cells are differentiated for a total of 12 days. PC-12 cells are differentiated by adding media containing 25 ng/mL Neuronal Growth Factro β. Media is replaced every other day and cells are differentiated for a total of 10 days. Differentiation is observed by microscopy.
Protection of Rotenone and MPP^+ induced toxicity in PC-12 and SK-N-SH cells: SK-N-SH and PC-12 cells are neuronally differentiated as described above. 10 μM rotenone, 10 μM MPP^+ and various concentrations of PIP-1 or its derivatives are added to the cells and incubated for 72 h. The cells are then washed in PBS and the viability is determined by adding propidium iodide to 1 μg/mL and measuring the fluorescent intensity of each cell by flow cytometry.

PARG [5] = target: PARG (Bos taurus, UniProt O02776); assay: Inhibition of PARG activity in vitro (quantitation of free ADP-ribose with benzamidine, fluorescence); assay type: biochemical; set-up: purchased Biomol
Sequence of PARG (Bos taurus, UniProt O02776) (O02776 whole entry): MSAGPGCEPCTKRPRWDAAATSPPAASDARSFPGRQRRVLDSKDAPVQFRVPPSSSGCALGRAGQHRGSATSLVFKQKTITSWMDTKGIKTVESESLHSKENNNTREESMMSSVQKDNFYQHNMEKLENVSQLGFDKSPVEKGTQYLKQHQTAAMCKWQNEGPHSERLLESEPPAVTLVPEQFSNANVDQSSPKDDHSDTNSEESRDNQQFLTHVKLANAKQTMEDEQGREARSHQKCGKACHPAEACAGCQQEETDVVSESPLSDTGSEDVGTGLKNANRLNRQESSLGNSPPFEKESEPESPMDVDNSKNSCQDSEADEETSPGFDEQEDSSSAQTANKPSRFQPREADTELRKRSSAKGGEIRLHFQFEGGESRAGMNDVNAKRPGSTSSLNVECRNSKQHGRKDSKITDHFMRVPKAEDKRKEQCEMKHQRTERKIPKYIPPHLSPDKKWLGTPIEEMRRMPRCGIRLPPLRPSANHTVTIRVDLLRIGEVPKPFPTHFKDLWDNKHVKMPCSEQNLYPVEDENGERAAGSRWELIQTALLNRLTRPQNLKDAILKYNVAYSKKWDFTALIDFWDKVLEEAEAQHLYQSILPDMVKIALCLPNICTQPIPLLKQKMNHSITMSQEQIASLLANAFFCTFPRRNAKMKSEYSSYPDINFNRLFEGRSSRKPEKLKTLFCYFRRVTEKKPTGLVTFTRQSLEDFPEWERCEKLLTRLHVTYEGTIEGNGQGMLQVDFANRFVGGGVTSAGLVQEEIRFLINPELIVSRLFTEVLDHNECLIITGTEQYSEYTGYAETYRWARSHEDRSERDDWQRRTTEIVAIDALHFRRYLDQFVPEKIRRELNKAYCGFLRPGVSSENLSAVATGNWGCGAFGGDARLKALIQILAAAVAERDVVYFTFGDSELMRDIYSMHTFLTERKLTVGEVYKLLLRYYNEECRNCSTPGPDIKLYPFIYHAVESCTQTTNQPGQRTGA
Description: PARG assay: Production and purification of PAR. PARP-1 (20 units) is added to 900 μL of PARP assay buffer containing 1 mM NAD^+ and 22.5 μg activated DNA. This reaction was run at 37° C. for 30 min and stopped by the addition of 300 μL of cold 100% trichloroacetic acid. The proteins thus precipitated are collected by centrifugation at 18,000 g for 30 min at 4° C. After removal of the supernatant, 1 mL of 1 M NaOH and 100 mM EDTA are added to the pellet and incubated for 2 h at 37° C. to cleave the PAR from the PARP protein acceptor. Then 9 mL of PAR buffer A (250 mM ammonium acetate, 6 M guanidinium HCl, 10 mM EDTA, pH 9.0) is added to the PAR and applied to a PROSEP-PB (Millipore) phenyl boronate column that is pre-equilibrated with PAR buffer A. The flowthrough is then reapplied to the column to ensure that all PAR is bound. The column is then washed with 25 mL of PAR buffer A, followed by 10 mL of PAR buffer B (1 M ammonium acetate and 1 mM EDTA, pH 9.0). The bound PAR is eluted with 4 mL of water collected in 1-mL fractions. Fractions containing PAR are pooled and concentrated. The concentration, measured as monomer, is determined by measuring the absorbance at 258 nm. PAR has an extinction coefficient of 13,500 cm^−1 at 258 nm.
Inhibition of PARG Activity: To determine the PARG IC50 values of the compounds, 39 μL of a 25.6 μM solution of PAR in PARG assay (50 mM KCl, 50 mM KH2PO4, pH 7.2) buffer and 1 μL of the compounds at varying concentrations (in PARG assay buffer) are added into the wells of a 384-well plate. The reaction is initiated by the addition of 10 μL of PARG (Biomol) at a concentration of 1 ng/ml (in PARG assay buffer), bringing the final concentration to […] and 20 μM PAR with varying concentrations of compounds in a total volume of 50 μL. The plate is incubated for 20 min at room temperature. The amount of free ADP-ribose hemiacetals is determined by the addition of 5 μL of an aqueous 8.5M KOH solution and 5 μL of an aqueous 850 μM benzamidine solution to each well. The plate is then incubated for 10 min in an oven set at 110° C. The plate is allowed to cool and then read on a Criterion Analyst AD with an excitation of 360 nm and an emission of 445 nm.

PARG [6] = target: T1, PARG; details: tannins; read-out: in vitro IC50 for PARG; cited from earlier work

T1 sequence (Q86W56 whole entry, species assumed): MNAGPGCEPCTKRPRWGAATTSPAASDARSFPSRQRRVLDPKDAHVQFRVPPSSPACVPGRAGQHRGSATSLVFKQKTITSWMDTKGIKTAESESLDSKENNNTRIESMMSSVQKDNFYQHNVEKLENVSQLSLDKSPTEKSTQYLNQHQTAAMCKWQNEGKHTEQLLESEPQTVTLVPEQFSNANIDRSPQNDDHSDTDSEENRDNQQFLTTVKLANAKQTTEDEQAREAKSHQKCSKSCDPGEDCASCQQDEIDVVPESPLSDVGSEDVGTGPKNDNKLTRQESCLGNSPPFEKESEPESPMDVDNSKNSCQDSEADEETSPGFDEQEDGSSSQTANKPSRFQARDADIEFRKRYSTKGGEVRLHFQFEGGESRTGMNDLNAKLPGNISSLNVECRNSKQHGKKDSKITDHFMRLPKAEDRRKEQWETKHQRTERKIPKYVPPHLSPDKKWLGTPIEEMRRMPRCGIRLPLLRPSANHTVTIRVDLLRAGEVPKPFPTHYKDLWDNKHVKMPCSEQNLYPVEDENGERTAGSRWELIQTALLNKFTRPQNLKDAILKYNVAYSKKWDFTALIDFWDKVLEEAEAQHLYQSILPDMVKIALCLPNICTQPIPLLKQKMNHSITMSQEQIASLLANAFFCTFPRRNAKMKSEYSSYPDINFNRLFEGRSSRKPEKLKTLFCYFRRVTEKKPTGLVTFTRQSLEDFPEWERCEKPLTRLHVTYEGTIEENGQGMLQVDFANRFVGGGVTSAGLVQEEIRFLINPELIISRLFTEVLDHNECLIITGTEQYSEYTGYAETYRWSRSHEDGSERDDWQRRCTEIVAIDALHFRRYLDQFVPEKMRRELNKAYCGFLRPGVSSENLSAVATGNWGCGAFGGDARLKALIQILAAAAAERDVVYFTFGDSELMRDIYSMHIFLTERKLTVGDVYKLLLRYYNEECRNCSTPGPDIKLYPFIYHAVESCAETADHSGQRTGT

Compound	Activity (PARG [2])	Protection of U-937 cells treated with H2O2 (activity compared to PIP-1) (U-937 cells)	further results
CCOc1ccc2nc3cc(N)ccc3c(N)c2c1 [ethacridine]			Ki (PARG [1]): < 7 µM
Nc1c(N2CCOCC2)cnn(-c2ccccc2)c1=O [Structure 21]	good	activity similar or better than PIP-1	
CC(=O)N(C(C)=O)c1c(Cl)cnn(-c2ccccc2)c1=O [Structure 10]	low		
4-Amino-5-dimethylamino-2-phenyl-2H-pyridazin-3-one [PIP-1]	moderate	low or no activity	
CCN(CC)c1cnn(-c2ccccc2)c(=O)c1N [Structure 11]	good	activity similar or better than PIP-1	
CCN(CC)c1cnn(-c2ccccc2)c(=O)c1NC(C)=O [Structure 25]	moderate	moderate activity	
CCCCN(CC)c1cnn(-c2ccccc2)c(=O)c1N [Structure 15]	moderate	moderate activity	
CC(=O)Nc1c(Cl)cnn(-c2ccccc2)c1=O [Structure 9]	low		
CN(C)c1cnn(C)c(=O)c1N [compound 6, 4-Amino-5-dimethylamino-2-methyl-2H-pyridazin-3-one]			Inhibition of NAD+ depletion in the whole cell assay [3]: do not inhibit NAD^+ depletion; Protection of rotenone-treated neuronally differentiated PC-12 cells (in words) [4]: inactive; Protection of rotenone-treated neuronally differentiated PC-12 cells (in words) ([4]; listed as analogue 6): do not protect; PARG inhibition in vitro (in words) (PARG [5]): inactive; PARG inhibition in vitro (in words) (PARG [5]; listed as analogue 6): do not inhibit NAD^+ depletion or PARG activity
CCCCCCNc1c(Cl)cnn(-c2ccccc2)c1=O [Structure 7]	low		
CCN(CC)CCOc1ccc2c(c1)C(=O)c1cc(OCCN(CC)CC)ccc1-2 [Tilorone]			Ki (PARG [1]): ~7 µM
O=c1c(Cl)c(O)cnn1-c1ccccc1 [entry 3, reference compound]	low	low or no activity	
CC(=O)Nc1c(N(C)C)cnn(-c2ccccc2)c1=O [Structure 24]	moderate	moderate activity	
CN(C)c1cnn(C)c(=O)c1N [Structure 39]	low		
CCCCN(CC)c1cnn(-c2ccccc2)c(=O)c1NC(C)=O [Structure 16]	low	low or no activity	
Nc1c(N2CCCCC2)cnn(-c2ccccc2)c1=O [Structure 19]	good	activity similar or better than PIP-1	
Nc1c(Cl)cnn(-c2ccccc2)c1=O [Structure 8]	low		
CCCN(CCC)c1cnn(-c2ccccc2)c(=O)c1N [Structure 12]	good	activity similar or better than PIP-1	
CC(=O)Nc1c(N2CCOCC2)cnn(-c2ccccc2)c1=O [Structure 22]	moderate	moderate activity	
CCCCN(CCCC)c1cnn(-c2ccccc2)c(=O)c1N [Structure 13]	good	activity similar or better than PIP-1	
CCCCN(CCCC)c1cnn(-c2ccccc2)c(=O)c1NC(C)=O [Structure 14]	low	low or no activity	
Oenothein B			IC50 (PARG [6]): 3.8 µM
CC(=O)Nc1c(N2CCCC2)cnn(-c2ccccc2)c1=O [Structure 18]	moderate	moderate activity	
CCCN(CCC)c1cnn(-c2ccccc2)c(=O)c1NC(C)=O [Structure 26]	low	low or no activity	
CN(C)c1ccn(-c2ccccc2)c(=O)c1N [compound 4, 3-Amino-4-dimethylamino-1-phenyl-1H-pyridin-2-one]			Inhibition of NAD+ depletion in the whole cell assay [3]: inhibit NAD^+ depletion; Protection of rotenone-treated neuronally differentiated PC-12 cells (in words) ([4]; listed as lactam 4): virtually identical PARG inhibition and cell protection properties as PIP-1; also recorded: protect; PARG inhibition in vitro (in words) (PARG [5]; listed as lactam 4): virtually identical PARG inhibition and cell protection properties as PIP-1; also recorded: inhibit PARG activity in vitro
Nc1ccc2cc3ccc(N)cc3nc2c1 [profavine]			Ki (PARG [1]): 36 µM
Nc1c(N2CCCC2)cnn(-c2ccccc2)c1=O [Structure 17]	moderate	moderate activity	
CC(=O)Nc1c(N2CCCCC2)cnn(-c2ccccc2)c1=O [Structure 20]	good	activity similar or better than PIP-1	
